Reference: patent publication US11400084B2 (BioTheryX, Inc., priority 2018, dated 2022)

Legend:
[1] = system: THLE-2 cells; experiment: Comparative study cell viability, THLE-2 cells (CTG2, 3 days); type: cell-based, human; settings: for IC50 concentration as fold of the IC50 concentration of Compound 1: relative to Compound 1; for IC50: Homo sapiens, 72 h, 3 days, read-out: reduced cell viability IC50
Experimental: (§1) Molm-13 and MV-4-11 cells (both leukemia cell lines) were cultured in RPMI 1640 media supplemented with 10% fetal bovine serum, streptomycin and penicillin, and were plated in white walled 96-well plates at 20,000 cells/well. THLE-2 cells (T-antigen immortalized human liver epithelial cells) were cultured using BEGM Bullet kit (Lonza CC-3170) supplemented with 10% fetal bovine serum, streptomycin and penicillin, and were plated in white walled 96-well plates 5000 cells/well. NHLF (normal human lung fibroblast) cells were cultured in DMEM media supplemented with 10% fetal bovine serum, streptomycin and penicillin, and were plated in white walled 96-well plates at 5000 cells/well. Cells were incubated in DMSO (control) or the indicated compounds for 3 days at 37° C. and 5% CO2. Following the incubation period, 100 μL of CellTiterGlow2 (CTG2) reagent (CellTiter-Glo®2 Luminescent Cell Viability Assay, Promega (Madison, Wis.)) was added to each well. Following a 10 minutes incubation with shaking, luminescence was measured using the Victor Wallac Luminometer or the Envision 2105 multimode plate reader.

[2] = target: T1, GSPT1 (Homo sapiens, UniProt P15170+Q96SW2); experiment: Western blot GSPT1 degradation assay in MV-4-11 cells; type: cell-based; settings: for GSPT1 % Degradation at 1 μM: MV-4-11 cells, 6-8 hours; for reduced levels of GSPT1: comparative study
T1 construct: whole cell protein extracts were separated on 4-12% SDS-polyacrylamide gels; endogenous in cells; host or cells: MV-4-11
Experimental: (§2) MV-4-11 cells were grown in RPMI 1640 media supplemented with 10% fetal bovine serum, streptomycin and penicillin.
(§3) Cells were cultured at approximately 10^6 cells per mL and incubated in DMSO or the indicated compound for 6-8 hours. Whole cell extracts were prepared using RIPA buffer according to manufacturer's protocol (Pierce). Briefly, 3×10^6 cells were washed once in PBS, the cell pellets were resuspended in RIPA buffer and allowed to incubate for 15 minutes on ice. Cells debris was removed by centrifugation and the cleared whole cell lysates were transferred to new tubes for further analysis.
(§4) For Western blot analysis, whole cell protein extracts were separated on 4-12% SDS-polyacrylamide gels, transferred to nitrocellulose and probed with the indicated primary antibodies. Membranes were subsequently washed and probed with the appropriate IRDye secondary antibodies (LI-COR). The signal was detected using the Odyssey Imaging System (LI-COR).
(§5) The following antibodies were used in these studies: Anti-eRF3/GSPT1: Abcam, ab126090 (Cambridge, Mass.); Anti-Ikaros: Abcam, ab191394 (Cambridge, Mass.); Anti-CK1α: Abcam, ab108296 (Cambridge, Mass.); β-actin (8H10D10) mouse monoclonal antibody: Cell Signaling Technology, #3700 (Danvers, Mass.); IRDye 680RD Goat anti-rabbit antibody: LI-COR, 926-68071 (Lincoln, Nebr.); IRDye 800CW Goat anti-mouse antibody: LI-COR, 926-32210 (Lincoln, Nebr.).
(§6) In each of Tables 1-3, the % degradation values are reported as “A”, “B”, “C”, or “D.” “A” represents a % degradation value of less than 25% (value<25%); “B” represents a % degradation value of equal to or more than 25% and less than 50% (25%≤value<50%); “C” represents a % degradation value of equal to or more than 50% and less than 75% (50%≤value<75%); and “D” represents a % degradation value of equal to or more than 75% (value≥75%).

[3] = system: MV-4-11 cells; experiment: Comparative study cell viability, MV-4-11 cells (CTG2, 3 days); type: cell-based; settings: for IC50 concentration as fold of the IC50 concentration of Compound 1: relative to Compound 1; for IC50: Homo sapiens, MV4-11, 72 h, 3 days, read-out: reduced cell viability IC50
Experimental: as §1

[4] = target: T2, CK1α (Homo sapiens, UniProt P48729+Q96SW2); experiment: Western blot CK1α degradation assay in MV-4-11 cells; type: cell-based; settings: 6-8 hours
T2 construct: endogenous in cells; host or cells: MV-4-11
Experimental: as §2, §3, §4, §5, §6

[5] = system: MOLM-13 cells; experiment: MOLM-13 cell viability assay (CellTiter-Glo 2, 3 days, 2500 cells/well); type: cell-based; settings: Homo sapiens, MOLM-13, 72 h, percentage of DMSO control
Experimental: MOLM-13 cells were cultured in RPMI 1640 media supplemented with 10% fetal bovine serum, streptomycin and penicillin, and were plated in white walled 96-well plates at 2500 cells/well. Cells were incubated in DMSO (control) or the indicated compound for 3 days at 37° C. and 5% CO2. Following the incubation period, 100 μL of CellTiterGlow2 (CTG2) reagent (CellTiter-Glo®2 Luminescent Cell Viability Assay, Promega (Madison, Wis.)) was added to each well. Following a 10 minutes incubation with shaking, luminescence was measured using the EnVision Multimode plate reader.
The MOLM-13 cell viability values, measured as percentages of the DMSO control, are reported in Table 8 as “A”, “B”, “C”, or “D.” “A” represents a % viability value of less than 40% (value<40%). “B” represents a % viability value of equal to or more than 40% and less than 60% (40%≤value<60%). “C” represents a % viability value of equal to or more than 60% and less than 90% (60%≤value<90%). “D” represents a % viability value of equal or more than 90% (value≥90%).

[6] = target: T3, IKAROS (Homo sapiens, UniProt Q13422+Q96SW2); experiment: Western blot IKAROS degradation assay in MV-4-11 cells; type: cell-based; settings: 6-8 hours
T3 construct: endogenous in cells; host or cells: MV-4-11
Experimental: as §2, §3, §4, §5, §6

[7] = system: IL-1β; experiment: IL-1β inhibition assay, LPS-induced PBMCs or CD14+ monocytes, Meso Scale; type: cell-based; settings: 100 ng/mL LPS 18-24 h
Experimental: (§7) Either frozen primary blood mononuclear cells (PBMCs) or frozen CD14+ mobilized peripheral blood monocytes were purchased from AllCells (PB003F, Normal Peripheral Blood MNC (Alameda, Calif.)). Cells were quick thawed, washed 1-time with RPMI-1640 (10% FBS/1% Pen-Strep) and plated in 96 well plates at 200,000 cells per well. Cells were pretreated with DMSO only or with the indicated compound for 1 h and then induced with 100 ng/mL lipopolysaccharide (LPS) for 18-24 h. The supernatant was analyzed for IL-1β, IL-6, and TNFα, using Meso Scale assay according to manufacturer's protocol. The negative control wells were treated with DMSO.

[8] = system: IL-2; experiment: IL-2 fold-change assay, anti-CD3 stimulated PBMCs, Mesoscale; type: cell-based; settings: Homo sapiens, PBMC, 24 h, fold difference from the DMSO control
Experimental: For the IL-2 analysis, 96 well plates were precoated with 1 μg/mL anti-human CD3 antibody (OKT3, eBioscience Inc., San Diego, Calif.). After washing with PBS, the indicated compound was added (50 μL/well) followed by PBMCs diluted at 3-4 million cells/mL (150 μL/well). Plates were incubated for 24 h and the supernatants collected for Mesoscale IL-2 analysis. IL-2 activity is measured as fold difference from the DMSO control.
In Table 7, the fold-change values are reported as “A”, “B”, “C”, or “D”. “A” represents a fold-change value of equal to or less than 1 (value≤1); “B” represents a fold-change value of more than 1 and equal to or less than 2 (1<value≤2); “C” represents a fold-change value of more than 2 and equal to or less than 3 (2<value≤3); and “D” represents a fold-change value of more than 3 (value>3).

[9] = system: TNFα; experiment: TNF-α inhibition assay, LPS-induced PBMCs or CD14+ monocytes, Meso Scale; type: cell-based; settings: 100 ng/mL LPS 18-24 h
Experimental: as §7

[10] = system: NHLF cells; experiment: Comparative study cell viability, NHLF cells (CTG2, 3 days); type: cell-based; settings: Homo sapiens, 72 h, read-out: reduced cell viability IC50
Experimental: as §1

[11] = system: MOLM-13 cells; experiment: Comparative study cell viability, Molm-13 cells (CTG2, 3 days); type: cell-based; settings: Homo sapiens, 72 h, read-out: reduced cell viability IC50
Experimental: as §1

[12] = system: PBMCs; experiment: Comparative study cell viability, LPS-induced PBMCs (CTG); type: cell-based; settings: PBMC, LPS 18-24 hr, read-out: reduced cell viability IC50
Experimental: Frozen […] blood mononuclear cells (PBMCs) were purchased from AllCells. Cells were quick thawed, washed with RPMI-1640/10% FBS/1% Penicillin/1% Streptomycin and plated in 96 well plates at 200,000 cells/well. Cells were pretreated with DMSO or the indicated compound for 1 hr and then induced with 100 ng/mL lipopolysaccharide (LPS) for 18-24 hr. Following the incubation period, 100 μL of CTG reagent was added to each well. Plates were incubated on the shaker at RT for 2 min. Following a 10 min incubation without shaking, luminescence was measured using the Envision 2105 multimode plate reader.

T1 sequence (P15170 whole entry): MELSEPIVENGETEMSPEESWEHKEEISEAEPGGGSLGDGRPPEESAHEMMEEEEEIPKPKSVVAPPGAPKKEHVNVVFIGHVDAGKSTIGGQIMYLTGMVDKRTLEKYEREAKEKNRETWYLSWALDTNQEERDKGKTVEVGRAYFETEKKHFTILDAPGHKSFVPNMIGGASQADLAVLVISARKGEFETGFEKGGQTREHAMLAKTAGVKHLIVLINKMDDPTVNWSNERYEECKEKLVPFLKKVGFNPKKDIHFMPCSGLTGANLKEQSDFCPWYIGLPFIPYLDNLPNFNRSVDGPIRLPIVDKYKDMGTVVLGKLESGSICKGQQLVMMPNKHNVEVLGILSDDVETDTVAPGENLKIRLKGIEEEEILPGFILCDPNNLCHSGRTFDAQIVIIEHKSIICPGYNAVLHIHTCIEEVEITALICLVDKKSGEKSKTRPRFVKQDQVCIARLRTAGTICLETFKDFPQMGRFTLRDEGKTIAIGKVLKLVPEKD
T1 sequence (Q96SW2 whole entry): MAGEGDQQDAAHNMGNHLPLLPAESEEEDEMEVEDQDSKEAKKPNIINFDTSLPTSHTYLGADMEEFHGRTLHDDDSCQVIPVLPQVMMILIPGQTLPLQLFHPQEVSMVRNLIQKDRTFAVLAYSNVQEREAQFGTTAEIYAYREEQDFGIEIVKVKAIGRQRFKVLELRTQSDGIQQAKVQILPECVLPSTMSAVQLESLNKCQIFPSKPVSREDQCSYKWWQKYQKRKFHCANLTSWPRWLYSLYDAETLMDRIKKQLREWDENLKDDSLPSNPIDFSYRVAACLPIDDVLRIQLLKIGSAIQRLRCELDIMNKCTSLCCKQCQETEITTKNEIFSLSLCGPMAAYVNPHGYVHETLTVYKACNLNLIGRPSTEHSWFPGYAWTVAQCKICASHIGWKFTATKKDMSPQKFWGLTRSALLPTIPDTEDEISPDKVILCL
T1 sequence (Q16531 whole entry partner): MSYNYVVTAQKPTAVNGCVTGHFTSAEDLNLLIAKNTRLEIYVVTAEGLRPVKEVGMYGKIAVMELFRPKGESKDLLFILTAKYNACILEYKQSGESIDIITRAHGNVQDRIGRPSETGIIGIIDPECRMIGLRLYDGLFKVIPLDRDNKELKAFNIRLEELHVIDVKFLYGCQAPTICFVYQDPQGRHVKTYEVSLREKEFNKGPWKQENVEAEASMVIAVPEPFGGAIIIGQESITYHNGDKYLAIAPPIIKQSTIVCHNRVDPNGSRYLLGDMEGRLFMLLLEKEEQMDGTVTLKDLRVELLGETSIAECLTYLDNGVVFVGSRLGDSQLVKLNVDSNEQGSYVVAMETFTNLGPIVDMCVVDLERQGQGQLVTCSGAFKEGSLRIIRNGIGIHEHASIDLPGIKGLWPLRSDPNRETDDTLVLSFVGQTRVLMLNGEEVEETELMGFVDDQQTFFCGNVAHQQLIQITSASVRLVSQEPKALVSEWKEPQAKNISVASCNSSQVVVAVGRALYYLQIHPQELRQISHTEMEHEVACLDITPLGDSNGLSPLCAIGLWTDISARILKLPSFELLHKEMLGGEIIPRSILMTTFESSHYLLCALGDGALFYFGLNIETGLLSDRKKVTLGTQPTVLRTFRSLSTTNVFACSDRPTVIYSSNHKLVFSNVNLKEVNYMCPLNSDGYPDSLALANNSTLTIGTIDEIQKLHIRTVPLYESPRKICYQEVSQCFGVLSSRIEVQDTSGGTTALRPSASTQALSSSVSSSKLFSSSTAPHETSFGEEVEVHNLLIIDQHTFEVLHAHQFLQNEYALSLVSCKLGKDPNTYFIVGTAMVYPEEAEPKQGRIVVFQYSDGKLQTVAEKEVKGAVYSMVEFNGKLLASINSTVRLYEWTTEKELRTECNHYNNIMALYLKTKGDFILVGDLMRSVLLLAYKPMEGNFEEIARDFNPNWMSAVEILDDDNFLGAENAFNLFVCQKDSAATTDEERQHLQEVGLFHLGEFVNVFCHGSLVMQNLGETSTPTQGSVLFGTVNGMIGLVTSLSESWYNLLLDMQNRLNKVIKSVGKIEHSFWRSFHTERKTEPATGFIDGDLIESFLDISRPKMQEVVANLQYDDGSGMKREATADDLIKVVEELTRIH
T2 sequence (P48729 whole entry): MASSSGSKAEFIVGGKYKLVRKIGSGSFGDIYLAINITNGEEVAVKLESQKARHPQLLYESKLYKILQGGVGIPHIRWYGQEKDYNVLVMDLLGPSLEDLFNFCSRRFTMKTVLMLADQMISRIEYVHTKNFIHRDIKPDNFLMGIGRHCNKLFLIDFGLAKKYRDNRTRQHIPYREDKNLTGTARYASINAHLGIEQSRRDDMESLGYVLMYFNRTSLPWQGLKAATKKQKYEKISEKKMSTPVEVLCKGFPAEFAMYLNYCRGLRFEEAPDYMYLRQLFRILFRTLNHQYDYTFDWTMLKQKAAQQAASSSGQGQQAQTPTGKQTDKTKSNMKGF
T2 sequence (Q96SW2 whole entry): as the sequence (Q96SW2 whole entry) above
T2 sequence (Q16531 whole entry partner): as the sequence (Q16531 whole entry partner) above
T3 sequence (Q13422 whole entry): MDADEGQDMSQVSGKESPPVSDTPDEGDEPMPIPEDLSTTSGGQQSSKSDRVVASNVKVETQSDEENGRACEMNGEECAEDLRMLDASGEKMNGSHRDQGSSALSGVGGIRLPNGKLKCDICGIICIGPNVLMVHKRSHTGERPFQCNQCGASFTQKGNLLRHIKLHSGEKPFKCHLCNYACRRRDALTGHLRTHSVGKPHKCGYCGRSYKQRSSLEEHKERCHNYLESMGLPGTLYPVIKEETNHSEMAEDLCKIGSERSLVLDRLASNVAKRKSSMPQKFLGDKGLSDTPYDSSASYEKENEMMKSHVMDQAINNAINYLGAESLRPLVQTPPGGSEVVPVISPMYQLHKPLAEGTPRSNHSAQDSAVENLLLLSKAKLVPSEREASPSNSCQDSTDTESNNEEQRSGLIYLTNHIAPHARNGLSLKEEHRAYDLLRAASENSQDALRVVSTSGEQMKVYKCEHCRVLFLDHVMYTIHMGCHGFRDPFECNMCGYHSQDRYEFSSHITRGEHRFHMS
T3 sequence (Q96SW2 whole entry): as the sequence (Q96SW2 whole entry) above
T3 sequence (Q16531 whole entry partner): as the sequence (Q16531 whole entry partner) above

In the case of `CC(C)(C)c1ccc(NCC(=O)NCc2ccc3c(c2)CN(C2CCC(=O)NC2=O)C3=O)cc1` (stereo not drawn) [Compound 17, 2-((4-(tert-butyl)phenyl)amino)-N-((2-(2,6-dioxopiperidin-3-yl)-1-oxoisoindolin-5-yl)methyl)acetamide], the “IC50 concentration as fold of the IC50 concentration of Compound 1” value (“IC50 concentration as fold” for short) [1] is reported as “about 1.5 fold”, the “GSPT1 % Degradation at 1 μM” value ([2]; 1 μM) is reported as “D (a % degradation value of equal to or more than 75% (value≥75%))” and the “IC50 concentration as fold” value [3] is reported as “about 1 fold”. For the same molecule, the “CK1α % Degradation at 1 μM” value [4] was “C (a % degradation value of equal to or more than 50% and less than 75% (50%≤value<75%))”, the viability at 1 µM [5] was 60 to 90% and the “IKAROS % Degradation at 1 μM” value [6] was “C (a % degradation value of equal to or more than 50% and less than 75% (50%≤value<75%))”.
`Cc1ccc(NCC(=O)NCc2ccc3c(c2)CN(C2CCC(=O)NC2=O)C3=O)cc1N(C)C` (stereo not drawn) [Compound 18, 2-((3-(dimethylamino)-4-methylphenyl)amino)-N-((2-(2,6-dioxopiperidin-3-yl)-1-oxoisoindolin-5-yl)methyl)acetamide] was tested, and the inhibition at 1 µM [7] was 30 to 50%, the “IC50 concentration as fold” value [1] was “about 1 fold” and the “GSPT1 % Degradation at 1 μM” value ([2]; 1 μM) was “D (a % degradation value of equal to or more than 75% (value≥75%))”. For the same molecule, the fold induction at 1 µM [8] was ≤ 1, the “IC50 concentration as fold” value [3] was “about 0.5 fold” and the “CK1α % Degradation at 1 μM” value [4] was “B (a % degradation value of equal to or more than 25% and less than 50% (25%≤value<50%))”. The viability at 1 µM [5] was > 90% and the inhibition at 1 µM [9] was 30 to 50%.
`Cc1ccc(NCC(=O)NCc2ccc3c(c2)CN(C2CCC(=O)NC2=O)C3=O)cc1Cl` (stereo not drawn) [Compound 1, 2-((3-Chloro-4-methylphenyl)amino)-N-((2-(2,6-dioxopiperidin-3-yl)-1-oxoisoindolin-5-yl)methyl)acetamide] was tested, and the IC50 [10] was > 10 µM, the IC50 [1] was > 10 µM and the “reduced levels of GSPT1” value ([2]; 0.1 μM) was 92%. The “GSPT1 % Degradation at 1 μM” value ([2]; 1 μM) was “D (a % degradation value of equal to or more than 75% (value≥75%))”, the “reduced levels of GSPT1” value ([2]; 1 μM) was 93% and the IC50 [3] was 0.0196 µM. For the same molecule, the “CK1α % Degradation at 1 μM” value [4] was “B (a % degradation value of equal to or more than 25% and less than 50% (25%≤value<50%))”, the viability at 1 µM [5] was > 90% and the “IKAROS % Degradation at 1 μM” value [6] was “D (a % degradation value of equal to or more than 75% (value≥75%))”. The IC50 [11] was 0.0748 µM and the IC50 [12] was > 10 µM.
In the case of `O=C(CNc1ccccc1)NCc1ccc2c(c1)CN(C1CCC(=O)NC1=O)C2=O` (stereo not drawn) [Compound 16, N-((2-(2,6-dioxopiperidin-3-yl)-1-oxoisoindolin-5-yl)methyl)-2-(phenylamino)acetamide], the “IC50 concentration as fold” value [1] is reported as “over 3 fold”, the “GSPT1 % Degradation at 1 μM” value ([2]; 1 μM) is reported as “B (a % degradation value of equal to or more than 25% and less than 50% (25%≤value<50%))” and the “IC50 concentration as fold” value [3] is reported as “over 2 fold”. It also gave a viability at 1 µM [5] of 60 to 90%.
In the case of `Cc1ccc(NC(=O)NCc2ccc3c(c2)CN(C2CCC(=O)NC2=O)C3=O)cc1Cl` (stereo not drawn) [Compound A, reference compound], the IC50 [10] is reported as 0.0317 µM, the IC50 [1] is reported as 0.00611 µM and the “reduced levels of GSPT1” value ([2]; 0.1 μM) is reported as 82%. The “reduced levels of GSPT1” value ([2]; 1 μM) was 98%, the IC50 [3] was 0.00187 µM and the IC50 [11] was 0.00065 µM. The IC50 [12] was 0.006 µM.
